“Also recorded” adds a separate entry of the source. Like-named read-outs stand apart in the source and are kept apart here.
Tests used:
AR [1] = system: AR; parameters: method as in ToxCast; conditions: ref ToxCast, cited from earlier work; for ToxCast conclusion from assays result: AR sheet; for ToxCast 1: (Active assays), number of positive assays / assays run: ToxCast AR assays
aromatase [2] = system: aromatase; parameters: method as in US EPA ToxCast; conditions: ref US EPA ToxCast, cited from earlier work
aromatase [3] = assay: ToxCast aromatase assays (TOX21_Aromatase_Inhibition) and final ToxCast call; assay type: cell-based; conditions: for ToxCast result: aromatase overall ToxCast call; for Final "true" call (ToxCast) Aromatase inhibition: from ToxCast assays
From the text: (§1) The performance of different in silico models for ED effects tends to be evaluated on single model for a single effect, such as ER or AR binding, agonism or antagonism (normally by the developer), or a limited number of models using multiple chemicals (Weyrich et al. [2022]). Multi-organisation collaborations have also evaluated multiple models for a specific effect e.g. ER (Mansouri et al. [2016]) and AR (Mansouri et al. [2020]) effects. Therefore, we have conducted a side-by-side comparison of multiple different in silico models covering three pathways in ED, namely ER, AR and aromatase inhibition and compared these with ToxCast-derived final calls, as well as with results from in vitro assays. The efficiency of the in silico models was evaluated as a metric for the ability of the in silico model to generate concrete predictions. […] In vivo data were available for some but not all chemicals; therefore, an evaluation of the performance of the methods was made by comparing the derived overall calls from in silico models with those from the ToxCast database. The final call for each chemical evaluated in the ToxCast assays was made by considering the active-flagged assays and the corresponding cytotoxicity levels, the ToxCast Pathway Model (Browne et al. [2015]) and the CERAPP Potency Level (Mansouri et al. [2016]) for ER effects and the ToxCast Pathway Model (Kleinstreuer et al. [2017]) for AR effects (see Online Resource 1 Supplementary Tables 2, 4 and 6 for the outcome of the ER, AR and aromatase ToxCast assays, additional literature and final calls for each chemical and target).
Aromatase represents only one enzyme involved in steroidogenesis (the conversion of androgens to oestrogens); therefore, the aromatase assay detects effects on 17β-oestradiol production only. […] It is a cell-based assay in which MCF-7 cells are incubated with the test chemical for 24 h before measuring aromatase activities indirectly via a luciferase-based reporter endpoint which is dependent on the binding of the oestradiol–ER complex to the oestrogen response element. A decrease in luciferase activity can occur as a result of direct inhibition of aromatase (preventing the production of oestradiol) or by preventing oestradiol from binding to the ER and thus the binding to the oestrogen RE which initiates the production of luciferase (Lui et al. [2008]).

AR [4] = assay: ToxCast AR assays and final ToxCast call; conditions: for Final "true" call (ToxCast): AR effects, from active assays, cytotoxicity and pathway model; for ToxCast result: AR overall call from Supplementary Table 4; for Final "true" call (ToxCast) AR: from ToxCast assays and ToxCast Pathway Model
From the text: (§2) A rich source of data can be found in the EPA's ToxCast database (US EPA). This contains ED data for ~ 1800 chemicals in more than 700 high-throughput assay endpoints that cover a range of high-level cell responses. The US EPA is running an Endocrine Disruption Screening Program (EDSP), with the aim of prioritising chemicals using high-throughput screening methods and computational toxicology approaches to evaluate thousands of chemicals for ED activities. The OECD framework for ED assessment (OECD [2018]) requires animal testing at higher levels, where relevant in vitro alternatives are missing e.g. for developmental, reproductive, neurological and immune effects. However, such follow-up testing is not possible for the cosmetics industry especially in the EU due to the complete animal testing ban which came into force in March 2013 (EU [2009]). Even for other industries, animal models are not suitable for assessing ED effects due to issues relating to ethics, capacity, speed and relevance (Patisaul et al. [2018]). Therefore, chemicals which cannot be evaluated using in vivo method must be assessed using alternative methods e.g. in silico and in vitro methods listed in Levels 1 and 2 of the framework described in the OECD 150 test guideline (OECD [2018]).
as §1

ER [5] = assay: ToxCast ER assays and final ToxCast call; conditions: for Final "true" call (ToxCast) ER: from active ToxCast assays, cytotoxicity, ToxCast Pathway Model and CERAPP Potency Level; for ToxCast result (ER): overall call from ToxCast data (Supplementary Table 2)
From the text: as §2, §1

ER [6] = system: ER; parameters: method as in US EPA ToxCast; conditions: ref US EPA ToxCast, cited from earlier work; for ToxCast 1: (Comments), efficacy: borderline: less than 50% efficacy; for ToxCast 1: (Active assays), ER assay listed as active: each listed assay name = active-flagged assay
human (non-selective) ER = assay: ER radioligand ([3H]estradiol) receptor-binding assay
Description: The chemicals were tested for their ability to bind to different targets. […] Chemicals were incubated at 10 µM with cells overexpressing ER or AR for 24 h at 4°C, after which, the binding of the radiolabeled ligand ([^3H]estradiol for ER and [^3H]methyltrienolone for AR) was measured by liquid scintillation counting. An increase or decrease higher than 50% were considered to represent significant effects. Four chemicals were tested in additional incubations at several concentrations up to the maximum soluble concentration for IC50 or EC50 determination for the associated target. Receptor binding was calculated as a % inhibition of the binding of a radioactively labeled ligand specific for each target.
Each test chemical was tested in a single assay in duplicate.

H295R cells = assay: H295R steroidogenesis assay (oestrogen and androgen production); assay type: cell-based, human; conditions: Homo sapiens, NCI-H295R, 48 h
Description: The in vitro H295R Steroidogenesis Assay is based on the human adenocarcinoma cell line, NCI-H295R, in which the human steroidogenesis pathway is fully functional (OECD 2022). The effect of the test chemical on the production of 17β-estradiol and testosterone is measured using ERα CALUX and AR CALUX technology.
The test chemical was tested in two independent assays, each in triplicate.

ERα [7] = target: T1, ERα (Homo sapiens, UniProt P03372); assay: YES (Yeast oestrogen screen) assay, agonist and antagonist mode; conditions: YES antagonist assay
T1 sequence (P03372 1-595): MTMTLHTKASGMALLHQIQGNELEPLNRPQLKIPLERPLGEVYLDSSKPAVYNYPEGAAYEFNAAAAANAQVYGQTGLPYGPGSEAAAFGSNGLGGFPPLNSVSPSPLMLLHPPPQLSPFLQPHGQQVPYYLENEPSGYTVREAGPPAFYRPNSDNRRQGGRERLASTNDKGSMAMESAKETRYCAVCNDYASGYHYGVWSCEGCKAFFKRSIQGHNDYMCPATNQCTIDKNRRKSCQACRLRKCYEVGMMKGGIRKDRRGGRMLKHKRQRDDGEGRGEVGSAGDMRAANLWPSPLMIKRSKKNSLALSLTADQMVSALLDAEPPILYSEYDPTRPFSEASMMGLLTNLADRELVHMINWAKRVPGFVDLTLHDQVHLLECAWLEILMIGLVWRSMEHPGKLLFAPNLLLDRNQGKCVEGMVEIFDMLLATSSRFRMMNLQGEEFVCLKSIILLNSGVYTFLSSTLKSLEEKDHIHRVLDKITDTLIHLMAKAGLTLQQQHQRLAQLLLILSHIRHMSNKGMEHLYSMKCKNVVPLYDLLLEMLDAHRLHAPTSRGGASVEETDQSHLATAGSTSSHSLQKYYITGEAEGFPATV
Description: The YES/YAS XL (Xtra Lyticase) assay kit from Xenometrix AG (Allschwil, Switzerland) was conducted according to the Supplier’s instructions.
In the YES assay, human ERα is integrated in the yeast (Saccharomyces cerevisiae) chromosome, and for the YAS assay human AR is integrated (Routledge and Sumpter 1996; Sohoni and Sumpter 1998). […] This enzyme then converts a yellow substrate to a purple metabolite, which can be measured colorimetrically.
Growing yeast cells stably transformed with either hERα (YES) or hAR (YAS) and a β-galactosidase reporter system were exposed to a range of concentrations of each test compound. […] The positive control chemicals for agonistic effects were 17-β estradiol for YES and 5α-dihydrotestosterone for YAS. […] A combination of a fixed concentration of positive control and a range of concentrations of each test chemical were tested. The cells were incubated with each treatment for 18 h at 31°C. The cells were lysed in the presence of the yellow β-galactosidase-substrate, chlorophenol red-β-D-galactopyranoside (CPRG). Yeast cell growth was assessed prior to addition of the lysis buffer by measuring the absorbance at 690 nm. The production of the red metabolite of CPRG was determined by measuring the absorbance at 570 nm. It was corrected for diffraction by cells and debris by a simultaneous measurement at 690 nm. The results were evaluated for estrogenic and androgenic agonistic and antagonistic activity, as well as for yeast growth inhibition or cytotoxicity.
An IR value ≥ IR10 in the YES or YAS agonist assay indicates an agonistic effect (IR10 is defined as the IR which is 10% of (IR max - IR solvent) above the IR solvent. An IR value ≤ IR50 in the YES or YAS antagonist assay indicates a possible antagonistic effect (IR50 is defined as 50% of (IR control - IR solvent), where the IR control is at the corresponding fixed concentration of agonist used: 3.3 × 10^-10 M 17-β estradiol and 3.3 × 10^-9 M 5α-dihydrotestosterone, respectively). […]

ERα [8] = target: T1, ERα; assay: (anti-)ERα CALUX receptor transactivation assay; assay type: cell-based; parameters: expressed in transfected cells; host or cells: CALUX cells (U2-OS is named only for the cytotoxicity CALUX)
Description: The human CALUX® assays were used to measure the impact of test compounds on estrogen and androgen pathways. […] Chemicals can activate (or inactivate, in the case of an antagonistic activity) a ligand-specific pathway by binding to the receptor (ER, AR), after which the receptor-ligand complex binds to specific DNA REs […], resulting in increased (or decreased) cellular expression of a marker protein (e.g., luciferase).
Chemicals were dissolved and diluted in DMSO. […] The cytotoxicity of each test chemical was assessed using the U2-OS based cytotoxicity CALUX bioassay. Concentrations causing >20% reduction of luminescence were considered cytotoxic. […] Luciferase production was quantified by measuring luminescence following addition of luciferin. For antagonist assays, a fixed concentration of receptor agonist was co-incubated with a range of concentrations of the test chemical. […] For the AR assays, dihydrotestosterone was the positive control for agonistic effects and flutamide was the positive control for antagonist effects.
Each test chemical was tested in triplicates in two independent experiments.

ER [9] = system: ER; parameters: method as in Mansouri et al. 2016; conditions: ref Mansouri et al. 2016; cited from earlier work
aromatase [10] = system: aromatase; parameters: method as in Lu et al. [2012]; conditions: recombinant and placental microsomal preparations; ref Lu et al. [2012]; cited from earlier work
AR [11] = conditions: AR pathway model; ref Kleinstreuer et al (2017) 10.1021/acs.chemrestox.6b00347; cited from earlier work
ER [12] = system: ER; parameters: method as in Browne, et al (2015); conditions: ref Browne, et al (2015), cited from earlier work; for ToxCast Pathway Model (AUC): as agonist where given, value above 0.1 = significant interaction
[13] = read-out: Steroidogenesis Androgenicity LEC
[14] = read-out: Steroidogenesis Estrogenicity LEC

SMILES	ToxCast conclusion from assays result (AR [1])	ToxCast 1: (Active assays), number of positive assays / assays run (AR [1])	ToxCast (Aromatase assays), positive/total (aromatase [2])	ToxCast result (aromatase [3])	Final "true" call (ToxCast) Aromatase inhibition (aromatase [3])	Final "true" call (ToxCast) (AR [4])	ToxCast result (AR [4])	Final "true" call (ToxCast) AR (AR [4])	Final "true" call (ToxCast) ER (ER [5])	ToxCast result (ER) (ER [5])	ToxCast 1: (Comments), efficacy (ER [6])	ToxCast 1: (Active assays), ER assay listed as active (ER [6])	ToxCast 1: (Active assays), positive/total ER assays (ER [6])	ToxCast conclusion from assays result (ER [6])	minimal effective concentration (H295R cells; [13]) [µM]	minimal effective concentration (H295R cells; [14]) [µM]	CERAPP Potency Level (ER [9])	aromatase inhibitory action (aromatase [10])	ToxCast Pathway Model (AUC) (AR [11])	ToxCast Pathway Model (AUC) (ER [12])	other results
CCN(CC)c1ccc(C(=O)c2ccccc2C(=O)O)c(O)c1 [DEABA, 2-(4-(diethylamino)-2-hydroxybenzoyl)benzoic acid]	Endocrine Disruption Potential.Significant Estrogen Receptor activity seen	1/9 positive	0/2 positive	Negative	Negative	Negative	Negative	Negative	Negative	Negative	Boarderline: less than 50% efficacy (28.5%)	TOX21_ERa_LUC_VM7_Agonist	1/8 positive	Endocrine Disruption Potential.Significant Estrogen Receptor activity seen	> 100	> 100	Negative				efficacy (assays Comments) (AR [1]; TOX21_AR_BLA_Antagonist_ratio): Boarderline: less than 50% efficacy (38.5%); ER binding outcome (human (non-selective) ER): negative; inhibition of control specific binding to the ER (human (non-selective) ER; single-dose screening, 10 µM): less than -25%; ER antagonism in the YES assay (ERα [7]): inconclusive; Lowest Effective Concentration (LEC), ER agonism (ERα [8]): 56 µM
CC/C(=C(\c1ccccc1)c1ccc(OCCNC)cc1)c1ccccc1 [N-desmethyl-tamoxifen]																		potent inhibitors			
CC/C(=C(\c1ccccc1)c1ccc(OCCN(C)C)cc1)c1ccccc1 [Tamoxifen, reference compound]	Endocrine Disruption Potential.Significant Estrogen Receptor activity seen	9/17 Positive		Positive	Positive	Inconclusive			Positive for agonism and antagonism	ER agonist and antagonist			19/21 positive	Endocrine Disruption Potential.Significant Estrogen Receptor activity seen	> 3.16	> 1	Moderate antagonist	no appreciable inhibition	AUC = 0.042, then there is no significant interaction.	0.45	ToxCast 1: (assays Comments) (AR [1]; comment on all active AR assays): There is binding, but only one concentration above the baseline, (noisy data); ToxCast (Aromatase assays), assay listed as active (aromatase [2]; each listed assay name = active assay): TOX21_Aromatase_Inhibition; also recorded: TOX21_Aromatase_Inhibition_viability; ToxCast Pathway Model interaction (ER [12]): significant interaction
O=C(O)c1ccc(C(=O)O)cc1 [Terephthalic acid, terephthalic acid]		0/14 positive	0/2 positive	Negative	Negative	Negative	Negative	Negative	Negative	Negative	Boarderline: less than 50% efficacy (31.34%)	OT_ER_ERaERb_1440	1/18 Positive		> 100	> 100	Negative		AUC = 0, then there is no significant interaction.	0	ToxCast Pathway Model interaction (ER [12]): NO significant interaction
CC/C(=C(\c1ccc(O)cc1)c1ccc(OCCNC)cc1)c1ccccc1 [endoxifen]																		potent inhibitors			

— paper PMC10761396, “Evaluation of new alternative methods for the identification of estrogenic, androgenic and steroidogenic effects: a comparative in vitro/in silico study” (Archives of Toxicology, 2023)
